Data as given in the supplement of paper PMC10307832.

Columns and labels:
Assay in all cases: relative viability (nuclei count vs DMSO), 5 days (fraction); higher = more cells survive
[1] = system: EPLC-272H
In short: (§1)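 Relative viability equals treated-well nuclei counts divided by vehicle-well nuclei counts. Counts came from 4× images of lung cancer cell lines grown in 1536-well plates for 5 days after pin-tool dosing on the day after seeding. Dosing used one drug alone or a fixed anchor-drug dose plus five library-drug doses (not always all listed) in √10 steps, and values are medians of duplicate plates.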

[2] = system: NCI-H358
In short: as §1

[3] = system: EKVX
In short: as §1

[4] = system: NCI-H460
In short: as §1

[5] = system: RERF-LC-KJ
In short: as §1

[6] = system: EMC-BAC-2
In short: as §1

[7] = system: LK-2
In short: as §1

[8] = system: LU99A
In short: as §1

[9] = system: NCI-H1650
In short: as §1

[10] = system: NCI-H522
In short: as §1

[11] = system: SW 900
In short: as §1

[12] = system: NCI-H1755
In short: as §1

[13] = system: HARA
In short: as §1

[14] = system: ChaGo-K-1
In short: as §1

[15] = system: HCC-44
In short: as §1

[16] = system: NCI-H596
In short: as §1

[17] = system: NCI-H647
In short: as §1

[18] = system: NCI-H1792
In short: as §1

[19] = system: NCI-H2405
In short: as §1

[20] = system: COR-L 105
In short: as §1

[21] = system: NCI-H1993
In short: as §1

[22] = system: NCI-H1734
In short: as §1

[23] = system: A-427
In short: as §1

## CCNC(=O)c1noc(-c2cc(C(C)C)c(O)cc2O)c1-c1ccc(CN2CCOCC2)cc1 [Luminespib] + CC(=O)Nc1cccc(-n2c(=O)n(C3CC3)c(=O)c3c(Nc4ccc(I)cc4F)n(C)c(=O)c(C)c32)c1 [Trametinib] (partner 0.02 µM)
[1]; first compound 0.002 µM
  relative viability: 0.278
[1]; first compound 0.006325 µM
  relative viability: 0.309
[1]; first compound 0.02 µM
  relative viability: 0.212
[1]; first compound 0.06325 µM
  relative viability: 0.238
[1]; first compound 0.2 µM
  relative viability: 0.0855
[2]; first compound 0.002 µM
  relative viability: 0.142
[2]; first compound 0.006325 µM
  relative viability: 0.133
[2]; first compound 0.02 µM
  relative viability: 0.0934
[2]; first compound 0.06325 µM
  relative viability: 0.0702
[2]; first compound 0.2 µM
  relative viability: 0.0715
[3]; first compound 0.002 µM
  relative viability: 0.391
[3]; first compound 0.006325 µM
  relative viability: 0.326
[3]; first compound 0.02 µM
  relative viability: 0.219
[3]; first compound 0.06325 µM
  relative viability: 0.165
[3]; first compound 0.2 µM
  relative viability: 0.122
[4]; first compound 0.002 µM
  relative viability: 0.205
[4]; first compound 0.006325 µM
  relative viability: 0.124
[4]; first compound 0.02 µM
  relative viability: 0.0112
[4]; first compound 0.06325 µM
  relative viability: 0.0128
[4]; first compound 0.2 µM
  relative viability: 0.0152
[5]; first compound 0.002 µM
  relative viability: 0.867
[5]; first compound 0.006325 µM
  relative viability: 0.903
[5]; first compound 0.02 µM
  relative viability: 0.711
[5]; first compound 0.06325 µM
  relative viability: 0.437
[5]; first compound 0.2 µM
  relative viability: 0.21
[6]; first compound 0.002 µM
  relative viability: 0.857
[6]; first compound 0.02 µM
  relative viability: 0.643
[6]; first compound 0.06325 µM
  relative viability: 0.619
[6]; first compound 0.2 µM
  relative viability: 0.247
[7]; first compound 0.002 µM
  relative viability: 0.834
[7]; first compound 0.006325 µM
  relative viability: 0.711
[7]; first compound 0.02 µM
  relative viability: 0.637
[7]; first compound 0.06325 µM
  relative viability: 0.164
[7]; first compound 0.2 µM
  relative viability: 0.166
[8]; first compound 0.002 µM
  relative viability: 0.534
[8]; first compound 0.006325 µM
  relative viability: 0.493
[8]; first compound 0.02 µM
  relative viability: 0.378
[8]; first compound 0.06325 µM
  relative viability: 0.482
[8]; first compound 0.2 µM
  relative viability: 0.507
[9]; first compound 0.002 µM
  relative viability: 0.571
[9]; first compound 0.006325 µM
  relative viability: 0.565
[9]; first compound 0.02 µM
  relative viability: 0.178
[9]; first compound 0.06325 µM
  relative viability: 0.1
[9]; first compound 0.2 µM
  relative viability: 0.0947
[10]; first compound 0.002 µM
  relative viability: 0.721
[10]; first compound 0.006325 µM
  relative viability: 0.716
[10]; first compound 0.02 µM
  relative viability: 0.693
[10]; first compound 0.06325 µM
  relative viability: 0.635
[10]; first compound 0.2 µM
  relative viability: 0.501
[11]; first compound 0.002 µM
  relative viability: 0.837
[11]; first compound 0.006325 µM
  relative viability: 0.919
[11]; first compound 0.02 µM
  relative viability: 0.659
[11]; first compound 0.06325 µM
  relative viability: 0.165
[11]; first compound 0.2 µM
  relative viability: 0.131
[12]; first compound 0.002 µM
  relative viability: 0.783
[12]; first compound 0.006325 µM
  relative viability: 0.733
[12]; first compound 0.02 µM
  relative viability: 0.691
[12]; first compound 0.06325 µM
  relative viability: 0.765
[12]; first compound 0.2 µM
  relative viability: 0.701
[13]; first compound 0.002 µM
  relative viability: 0.667
[13]; first compound 0.006325 µM
  relative viability: 0.614
[13]; first compound 0.02 µM
  relative viability: 0.471
[13]; first compound 0.06325 µM
  relative viability: 0.121
[13]; first compound 0.2 µM
  relative viability: 0.141
[14]; first compound 0.002 µM
  relative viability: 0.831
[14]; first compound 0.006325 µM
  relative viability: 0.873
[14]; first compound 0.02 µM
  relative viability: 0.884
[14]; first compound 0.06325 µM
  relative viability: 0.861
[14]; first compound 0.2 µM
  relative viability: 0.892
[15]; first compound 0.002 µM
  relative viability: 0.979
[15]; first compound 0.006325 µM
  relative viability: 1.19
[15]; first compound 0.02 µM
  relative viability: 1.24
[15]; first compound 0.06325 µM
  relative viability: 0.982
[15]; first compound 0.2 µM
  relative viability: 0.775
[16]; first compound 0.002 µM
  relative viability: 0.873
[16]; first compound 0.006325 µM
  relative viability: 0.835
[16]; first compound 0.02 µM
  relative viability: 0.743
[16]; first compound 0.06325 µM
  relative viability: 0.806
[16]; first compound 0.2 µM
  relative viability: 0.646
[17]; first compound 0.002 µM
  relative viability: 0.507
[17]; first compound 0.006325 µM
  relative viability: 0.508
[17]; first compound 0.02 µM
  relative viability: 0.195
[17]; first compound 0.06325 µM
  relative viability: 0.0973
[17]; first compound 0.2 µM
  relative viability: 0.0815
[18]; first compound 0.002 µM
  relative viability: 0.407
[18]; first compound 0.006325 µM
  relative viability: 0.391
[18]; first compound 0.02 µM
  relative viability: 0.317
[18]; first compound 0.06325 µM
  relative viability: 0.0621
[18]; first compound 0.2 µM
  relative viability: 0.0632
[19]; first compound 0.002 µM
  relative viability: 0.669
[19]; first compound 0.02 µM
  relative viability: 0.515
[19]; first compound 0.06325 µM
  relative viability: 0.252
[19]; first compound 0.2 µM
  relative viability: 0.202
[20]; first compound 0.002 µM
  relative viability: 0.46
[20]; first compound 0.006325 µM
  relative viability: 0.43
[20]; first compound 0.02 µM
  relative viability: 0.384
[20]; first compound 0.06325 µM
  relative viability: 0.265
[20]; first compound 0.2 µM
  relative viability: 0.278
[21]; first compound 0.002 µM
  relative viability: 0.562
[21]; first compound 0.006325 µM
  relative viability: 0.424
[21]; first compound 0.02 µM
  relative viability: 0.488
[21]; first compound 0.06325 µM
  relative viability: 0.461
[21]; first compound 0.2 µM
  relative viability: 0.474
[22]; first compound 0.002 µM
  relative viability: 0.65
[22]; first compound 0.006325 µM
  relative viability: 0.586
[22]; first compound 0.02 µM
  relative viability: 0.579
[22]; first compound 0.06325 µM
  relative viability: 0.199
[22]; first compound 0.2 µM
  relative viability: 0.172
[23]; first compound 0.002 µM
  relative viability: 0.771
[23]; first compound 0.006325 µM
  relative viability: 0.74
[23]; first compound 0.02 µM
  relative viability: 0.632
[23]; first compound 0.06325 µM
  relative viability: 0.607
[23]; first compound 0.2 µM
  relative viability: 0.281
